The results in this text go back to patent US12172995B2, “Substituted indole and indazole compounds” (BRISTOL-MYERS SQUIBB COMPANY, priority 2018, dated 2024).

Format in all cases: cell-based
Test [1] concerns the target T1, human TLR7 (Homo sapiens, UniProt Q9NYK1).
T1 construct: host or cells: HEK-Blue cells
T1 sequence (Q9NYK1 27-1049): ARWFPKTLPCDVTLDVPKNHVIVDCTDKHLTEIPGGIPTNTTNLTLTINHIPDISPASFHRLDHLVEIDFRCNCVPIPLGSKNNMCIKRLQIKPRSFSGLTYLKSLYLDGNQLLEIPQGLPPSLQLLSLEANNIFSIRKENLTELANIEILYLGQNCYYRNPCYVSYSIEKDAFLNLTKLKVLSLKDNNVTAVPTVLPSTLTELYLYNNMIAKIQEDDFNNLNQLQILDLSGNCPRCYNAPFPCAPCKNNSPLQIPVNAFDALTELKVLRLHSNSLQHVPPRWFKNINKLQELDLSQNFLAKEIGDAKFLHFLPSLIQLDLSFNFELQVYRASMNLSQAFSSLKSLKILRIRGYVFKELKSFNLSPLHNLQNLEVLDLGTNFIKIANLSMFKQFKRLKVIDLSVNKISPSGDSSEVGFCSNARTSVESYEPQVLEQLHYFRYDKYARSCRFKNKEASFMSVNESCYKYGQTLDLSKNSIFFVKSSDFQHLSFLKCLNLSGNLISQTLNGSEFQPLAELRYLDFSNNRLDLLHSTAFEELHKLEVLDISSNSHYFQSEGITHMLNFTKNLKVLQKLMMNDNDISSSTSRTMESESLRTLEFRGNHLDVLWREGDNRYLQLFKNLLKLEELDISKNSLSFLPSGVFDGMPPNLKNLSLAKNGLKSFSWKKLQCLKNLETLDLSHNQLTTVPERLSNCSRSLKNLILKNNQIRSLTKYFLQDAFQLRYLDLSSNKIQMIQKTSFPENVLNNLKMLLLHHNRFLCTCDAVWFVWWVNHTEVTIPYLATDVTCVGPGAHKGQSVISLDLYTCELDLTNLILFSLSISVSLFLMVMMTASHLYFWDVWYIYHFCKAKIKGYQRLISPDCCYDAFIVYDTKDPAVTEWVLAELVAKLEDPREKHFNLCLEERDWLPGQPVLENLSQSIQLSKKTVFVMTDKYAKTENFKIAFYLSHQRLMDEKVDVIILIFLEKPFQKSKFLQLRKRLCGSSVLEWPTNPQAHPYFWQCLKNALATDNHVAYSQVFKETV
Briefly: TLR7 inhibition reporter assay (HEK-Blue SEAP). As to conditions: HEK-Blue cells overexpressing human TLR7, stimulated with gardiquimod 7.5 μM, 22 hour incubation. The method, boiled down:
(§1)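 HEK-Blue cells overexpressing the receptor, with an NF-κB/AP-1-driven SEAP reporter, were pre-treated with compound (0.05 nM to 50 μM) for 30 min at room temperature. Stimulation used gardiquimod 7.5 μM (TLR7), R848 15.9 μM (TLR8) or ODN2006 5 nM (TLR9), followed by 22 h at 37 °C.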
Background: A reporter such as luciferase makes a cellular process visible.

The target in test [2] is T2, human TLR8 (Homo sapiens, UniProt Q9NR97).
T2 construct: host or cells: HEK-Blue cells
T2 sequence (Q9NR97 27-1041): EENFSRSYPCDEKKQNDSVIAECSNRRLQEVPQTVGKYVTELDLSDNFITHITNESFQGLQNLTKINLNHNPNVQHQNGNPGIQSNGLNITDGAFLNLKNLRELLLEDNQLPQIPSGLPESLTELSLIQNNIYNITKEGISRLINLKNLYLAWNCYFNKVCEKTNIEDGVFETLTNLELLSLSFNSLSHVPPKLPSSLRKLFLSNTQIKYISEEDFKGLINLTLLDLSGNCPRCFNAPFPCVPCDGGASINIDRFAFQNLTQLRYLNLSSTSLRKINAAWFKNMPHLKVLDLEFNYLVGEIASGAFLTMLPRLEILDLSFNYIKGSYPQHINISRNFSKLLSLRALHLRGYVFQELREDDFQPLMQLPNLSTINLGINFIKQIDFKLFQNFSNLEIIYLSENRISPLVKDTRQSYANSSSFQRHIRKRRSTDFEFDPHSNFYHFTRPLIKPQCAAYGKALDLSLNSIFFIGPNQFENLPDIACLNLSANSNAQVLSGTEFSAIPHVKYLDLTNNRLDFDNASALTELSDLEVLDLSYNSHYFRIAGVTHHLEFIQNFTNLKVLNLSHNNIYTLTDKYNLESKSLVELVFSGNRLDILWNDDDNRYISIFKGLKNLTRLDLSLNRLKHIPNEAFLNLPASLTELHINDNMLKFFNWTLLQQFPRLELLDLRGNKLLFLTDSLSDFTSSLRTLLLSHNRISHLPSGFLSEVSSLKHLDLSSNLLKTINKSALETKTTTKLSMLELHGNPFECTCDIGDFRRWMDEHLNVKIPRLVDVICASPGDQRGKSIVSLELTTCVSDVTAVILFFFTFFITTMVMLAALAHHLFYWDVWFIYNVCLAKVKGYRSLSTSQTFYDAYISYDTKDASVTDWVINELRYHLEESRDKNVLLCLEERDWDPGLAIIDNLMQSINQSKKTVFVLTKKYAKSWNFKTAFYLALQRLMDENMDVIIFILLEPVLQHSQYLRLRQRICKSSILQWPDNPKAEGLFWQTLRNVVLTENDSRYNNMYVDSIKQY
Briefly: TLR8 inhibition reporter assay (HEK-Blue SEAP). As to conditions: HEK-Blue cells overexpressing human TLR8, stimulated with R848 15.9 μM, 22 hour incubation. In outline: as §1

In test [3] the target is T3, human TLR9 (Homo sapiens, UniProt Q9NR96).
T3 construct: host or cells: HEK-Blue cells
T3 sequence (Q9NR96 26-1032): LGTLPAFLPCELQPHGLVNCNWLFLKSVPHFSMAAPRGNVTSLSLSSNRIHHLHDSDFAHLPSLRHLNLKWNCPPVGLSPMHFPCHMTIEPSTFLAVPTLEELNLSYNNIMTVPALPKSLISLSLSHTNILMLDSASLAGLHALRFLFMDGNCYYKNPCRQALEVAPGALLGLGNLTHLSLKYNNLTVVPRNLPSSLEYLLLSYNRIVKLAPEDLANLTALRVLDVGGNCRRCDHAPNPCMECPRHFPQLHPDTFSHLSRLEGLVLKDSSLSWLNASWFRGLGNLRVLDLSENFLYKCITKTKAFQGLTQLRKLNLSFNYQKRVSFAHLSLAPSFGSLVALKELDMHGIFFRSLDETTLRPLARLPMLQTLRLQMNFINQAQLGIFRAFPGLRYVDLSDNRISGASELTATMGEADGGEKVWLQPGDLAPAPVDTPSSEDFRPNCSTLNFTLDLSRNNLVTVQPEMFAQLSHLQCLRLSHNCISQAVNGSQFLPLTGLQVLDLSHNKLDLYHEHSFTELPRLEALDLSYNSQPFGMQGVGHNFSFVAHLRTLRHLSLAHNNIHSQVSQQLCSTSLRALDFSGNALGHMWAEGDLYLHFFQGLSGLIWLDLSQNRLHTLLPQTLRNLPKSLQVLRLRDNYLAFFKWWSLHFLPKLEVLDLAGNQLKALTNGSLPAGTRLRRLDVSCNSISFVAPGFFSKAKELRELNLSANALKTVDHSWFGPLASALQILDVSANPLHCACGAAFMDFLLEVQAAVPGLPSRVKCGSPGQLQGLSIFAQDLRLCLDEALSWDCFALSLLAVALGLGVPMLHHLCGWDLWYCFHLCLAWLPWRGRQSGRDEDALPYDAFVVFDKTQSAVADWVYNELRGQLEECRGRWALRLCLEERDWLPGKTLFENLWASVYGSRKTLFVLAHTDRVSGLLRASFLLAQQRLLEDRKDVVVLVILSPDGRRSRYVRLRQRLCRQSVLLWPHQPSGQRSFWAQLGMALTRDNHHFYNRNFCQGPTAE
Briefly: TLR9 inhibition reporter assay (HEK-Blue SEAP). The settings on record: HEK-Blue cells overexpressing human TLR9, stimulated with ODN2006 5 nM, 22 hour incubation. In outline:
as §1

Molecules are shown by their SMILES.

A word on the IC50: it is the concentration needed to halve the response being measured. Read a low IC50 as inhibition by little substance. As to `Cc1cc2c(C3CCCNC3)n[nH]c2cc1-c1cc(C)c(=O)n(C)c1` (stereo not drawn) [Example 46, 1,3-dimethyl-5-(5-methyl-3-(piperidin-3-yl)-1H-indazol-6-yl)pyridin-2(1H)-one], the values for the IC50 in test [1], in test [2] and in test [3] were 124 nM, 2.1 nM and 1040 nM, respectively.
Turning to `Cc1cc2c(C3CCCNC3)n[nH]c2cc1-c1cn(C)c2ncccc12` (stereo not drawn) [Example 47, 5-methyl-6-(1-methyl-1H-pyrrolo[2,3-b]pyridin-3-yl)-3-(piperidin-3-yl)-1H-indazole], the IC50 in test [1] was determined as 22.9 nM; in test [2], 0.2 nM; in test [3], 2880 nM.
`Cc1cc2c(C3CCCNC3)n[nH]c2cc1-c1cn2ncnc2c(C)c1C` (stereo not drawn) [Example 48, 7,8-dimethyl-6-(5-methyl-3-(piperidin-3-yl)-1H-indazol-6-yl)-[1,2,4]triazolo[1,5-a]pyridine]: the IC50 in test [1] came out at 47.6 nM; in test [2], 2.5 nM; in test [3] it was 2310 nM.
As to `Cc1cc2c(C3CNC3)n[nH]c2cc1-c1cc(C)c2ncnn2c1` [Example 49, 6-(3-(azetidin-3-yl)-5-methyl-1H-indazol-6-yl)-8-methyl-[1,2,4]triazolo[1,5-a]pyridine], the IC50 in test [1] was determined as 174 nM; in test [2], 15.3 nM; in test [3], 1890 nM.
In the same order, the values of `Cc1cc(-c2cc3[nH]nc(C4CCCNC4)c3cc2C)cc(C)n1` (stereo not drawn) [Example 50, 6-(2,6-dimethylpyridin-4-yl)-5-methyl-3-(piperidin-3-yl)-1H-indazole] are 63.4 nM, 1.5 nM and 404 nM.
In the same order, the values of `Cc1cc(-c2cc(C)c3ncnn3c2)cc2[nH]nc(C3CCCNC3)c12` (stereo not drawn) [Example 51, 8-methyl-6-(4-methyl-3-(piperidin-3-yl)-1H-indazol-6-yl)-[1,2,4]triazolo[1,5-a]pyridine] are 4.7 nM, 19.6 nM and 287 nM.
Regarding `Cc1cc2c(C3CCCN(CC(=O)N(C)C)C3)n[nH]c2cc1-c1cc(C)c2ncnn2c1` (stereo not drawn) [Example 53, N,N-dimethyl-2-(3-(5-methyl-6-(8-methyl-[1,2,4]triazolo[1,5-a]pyridin-6-yl)-1H-indazol-3-yl)piperidin-1-yl)acetamide], the IC50 in test [1] was found to be 44.2 nM; in test [2], 1.2 nM; in test [3] it was 5830 nM.
As to `Cc1cc2c(C3CCCN(C(=O)CN(C)C)C3)n[nH]c2cc1-c1cc(C)c2ncnn2c1` (stereo not drawn) [Example 54, 2-(dimethylamino)-1-(3-(5-methyl-6-(8-methyl-[1,2,4]triazolo[1,5-a]pyridin-6-yl)-1H-indazol-3-yl)piperidin-1-yl)ethan-1-one], the half-maximal inhibitory concentration (IC50) in test [1] was 41 nM; in test [2] it was 6.4 nM; in test [3], 5270 nM.
In the case of `Cc1cc2c(C3CCCN(C(=O)CN(C)C)C3)n[nH]c2cc1-c1cc(C)c2ncnn2c1` (stereo not drawn) [Example 56, 2-(dimethylamino)-1-(3-(5-methyl-6-(8-methyl-[1,2,4]triazolo[1,5-a]pyridin-6-yl)-1H-indazol-3-yl)piperidin-1-yl)ethan-1-one], the IC50 in test [1] is 12.2 nM; in test [2], 1.7 nM; in test [3], 4940 nM.
As to `Cc1cc2c(C3CCCN(CC(=O)N(C)C)C3)n[nH]c2cc1-c1cc(C)c2ncnn2c1` (stereo not drawn) [Example 57, N,N-dimethyl-2-(3-(5-methyl-6-(8-methyl-[1,2,4]triazolo[1,5-a]pyridin-6-yl)-1H-indazol-3-yl)piperidin-1-yl)acetamide], the half-inhibitory concentration (IC50) in test [1] stood at 19.9 nM; in test [2], 4.5 nM; in test [3], 6900 nM.
In the same order, the values of `Cc1cc2c(C3CCCNC3)n[nH]c2cc1-c1ccc2ncnn2c1` (stereo not drawn) [Example 58, 6-(5-methyl-3-(piperidin-3-yl)-1H-indazol-6-yl)-[1,2,4]triazolo[1,5-a] pyridine] are 76.2 nM, 2.8 nM and 661 nM.
The matching figures for `Cc1cc(-c2cc(C)c3ncnn3c2)cc2[nH]nc(C3CCCN(CC(=O)N(C)C)C3)c12` (stereo not drawn) [Example 59, N,N-dimethyl-2-(3-(4-methyl-6-(8-methyl-[1,2,4]triazolo[1,5-a]pyridin-6-yl)-1H-indazol-3-yl)piperidin-1-yl)acetamide]: 10.5 nM, 43.9 nM and 3210 nM.
On to `Cc1cc(-c2cc(C)c3ncnn3c2)cc2[nH]nc(C3CCCN(C4CCOCC4)C3)c12` (stereo not drawn) [Example 60, 8-methyl-6-(4-methyl-3-(1-(tetrahydro-2H-pyran-4-yl)piperidin-3-yl)-1H-indazol-6-yl)-[1,2,4]triazolo[1,5-a]pyridine], for which the IC50 in test [1] turned out to be 79.3 nM; in test [2], 62.2 nM; in test [3], 4250 nM.
As for `Cc1cc(-c2cc(C)c3ncnn3c2)cc2[nH]nc(C3CCCN(C)C3)c12` (stereo not drawn) [Example 61, 8-methyl-6-(4-methyl-3-(1-methylpiperidin-3-yl)-1H-indazol-6-yl)-[1,2,4]triazolo[1,5-a]pyridine], the IC50 in test [1] is 13.5 nM; in test [2], 19.5 nM; in test [3], 3340 nM.
